Assay results: patent publication US6346514B1, “Pharmaceutical lysine-containing polypeptide compositions and methods of use thereof” (priority 1991, dated 2002)

System: lymphoid cells in blood, thymus, lymph nodes, spleen and red bone marrow
Assay: Effect on immune system of healthy guinea pigs
Assay type: in vivo
Description: Forty male guinea pigs were used in the following test. Most of the animals were treated daily with a single dose (i.m.) of Thr-Ala-Glu-Glu-Lys (SEQ ID NO:34) (HM897) […] for five days. Control animals were treated with single daily doses of 0.5 ml (i.m.) of normal saline.
Tested parameters: clinical blood examination, non-specific resistance by lysosomal cationic test; “active” T-lymphocytes and total T-lymphocytes (E-RFC), B-lymphocytes (EAC-RFC) were measured in blood, thymus, lymph nodes, spleen and red bone marrow. […] Blood lymphocyte functional activity was evaluated by leukocyte migration inhibition (LMI) with ConA. Histological examinations of thymus, spleen, lymph nodes, bone marrow and adrenals were carried out. All of these indicia were measured on 10th and 20th days after onset of the treatment.

Thr-Ala-Glu-Glu-Lys (TAEEK) [HM897]
lymphocyte stimulation (10th day): predominant T-lymphocyte stimulation
mitotic activity in lymph nodes, spleen and bone marrow (10th day after onset of administration): increased level of mitotic activity
lymphocyte stimulation (20th day): both T- and B-lymphocytes
lymphoid cells proliferation and differentiation in thymus and bone marrow (healthy guinea pigs, i.m. single daily dose for five days): stimulates lymphoid cells proliferation and differentiation in thymus and bone marrow
